Turning to `Cc1cccc(COc2nc(Cl)cnc2NS(=O)(=O)c2cccc(Cl)c2Cl)n1` [Example 93, 2,3-Dichloro-N-[S-chloro-3-(6-methyl-2-pyridinylmethoxy)-2-pyrazinyl]benzenesulphonamide], the melting point is 158 to 159 °C.
With `COc1ncc(C)nc1NS(=O)(=O)c1cccc(Cl)c1Cl` [Example 194, 2,3-Dichloro-N-(3-methoxy-6-methyl-2-pyrazinyl)benzenesulphonamide], the melting point lay within 50 to 60 °C.
`COc1nccnc1NS(=O)(=O)c1ccc(F)c(Cl)c1Cl` [Example 207, 2,3-Dichloro-4-fluoro-N-(3-methoxy-2-pyrazinyl)benzenesulphonamide] gave a melting point of 192 to 194 °C.
As for `COc1nc(Cn2cncn2)cnc1NS(=O)(=O)c1cccc(Cl)c1Cl` [Example 195, 2,3-Dichloro-N-[3-methoxy-5-(1H-1,2,4-triazol-1-ylmethyl)-2-pyrazinyl]benzenesulphonamide], the figure is 95 to 105 °C.
As for `CN(C)Cc1ccc(COc2nc(Br)cnc2NS(=O)(=O)c2cccc(Cl)c2Cl)o1` [Example 176, N-[5-Bromo-3-(5-dimethylaminomethyl-2-furanylmethoxy)-2-pyrazinyl]-2,3-dichloro-benzenesulphonamide], the figure is 206 to 207 °C; as for `O=S(=O)(Nc1ncc(Cl)nc1OCc1cccnc1)c1cccc(Cl)c1F` [Example 96, 3-Chloro-N-[5-chloro-3-(3-pyridinylmethoxy)-2-pyrazinyl]-2-fluorobenzenesulphonamide], 177 to 178 °C; as for `COc1nc(SCC(=O)O)cnc1NS(=O)(=O)c1cccc(Cl)c1Cl` [Example 83, [5-(2,3-Dichlorobenzenesulphonylamino)-6-methoxy-2-pyrazinylsulphanyl]acetic acid], 138 to 140 °C.
With `Cc1c(Cl)cccc1S(=O)(=O)Nc1ncc(Cl)nc1OCc1cccnc1` [Example 95, 3-Chloro-N-[5-chloro-3-(3-pyridinylmethoxy)-2-pyrazinyl]-2-methylbenzenesulphonamide] the figure was 192 to 193 °C.
Take `O=S(=O)(Nc1nccnc1OCc1ccc(CO)cc1)c1cccc(Cl)c1Cl` [Example 111, 2,3-Dichloro-N-[3-(4-hydroxymethylphenylmethoxy)-2-pyrazinyl]benzenesulphonamide]: the melting point is 160 to 161 °C.
With `COc1nc(C(C)(C)O)cnc1NS(=O)(=O)c1cccc(Cl)c1Cl` [Example 114, 2,3-Dichloro-N-[5-(1-hydroxy-1-methylethyl)-3-methoxy-2-pyrazinyl]benzenesulphonamide] the figure was 192 to 193 °C; with `COc1ncc(Cl)nc1NS(=O)(=O)c1ccccc1Cl` [Example 38, 2-Chloro-N-(6-chloro-3-methoxy-2-pyrazinyl)benezenesulphonamide], 172 to 173 °C; with `COC(=O)c1cnc(OC)c(NS(=O)(=O)c2cccc(Cl)c2Cl)n1` [Example 201, 6-(2,3-Dichlorophenylsulphonylamino)-5-methoxy-2-pyrazinecarboxylic acid, methyl ester], 90 to 92 °C.
With `Cc1cnc(NS(=O)(=O)c2cccc(Cl)c2Cl)c(OCc2ncccc2C)n1` [Example 26, 2,3-Dichloro-N-[5-methyl-3-(3-methyl-2-pyridinylmethoxy)-2-pyrazinyl]benzenesulphonamide] the figure was 137 to 138 °C; with `COc1nc(SCc2ncon2)cnc1NS(=O)(=O)c1cccc(Cl)c1Cl` [Example 172, 2,3-Dichloro-N-[3-methoxy-5-([1,2,4]-3-oxadiazolylmethylsulphanyl)-2-pyrazinyl]benzenesulphonamide], 154 to 156 °C; with `NCc1ccc(COc2nc(Cl)cnc2NS(=O)(=O)c2cccc(Cl)c2Cl)o1` [Example 196, N-(3-(5-Aminomethyl-2-furanylmethoxy)-5-chloro-2-pyrazinyl)-2,3-dichloro-benzenesulphonamide], 201 to 202 °C.
As for `COc1nc(C(F)F)cnc1NS(=O)(=O)c1cccc(Cl)c1Cl` [Example 206, 2,3-Dichloro-N-(5-difluoromethyl-3-methoxy-2-pyrazinyl)benzenesulphonamide], the figure is 117 to 118 °C.
`O=S(=O)(Nc1nc(Cl)cnc1Br)c1cccc(Cl)c1Cl` [Example 98] gave a melting point of 123 to 124 °C.
With `COc1cccc(S(=O)(=O)Nc2nccnc2OC)c1Cl` [Example 132, 2-Chloro-3-methoxy-N-(3-methoxy-2-pyrazinyl)benzenesulphonamide] the figure was 151 to 152 °C.
As for `COc1nc(CO)c(Cl)nc1NS(=O)(=O)c1cccc(Cl)c1Cl` [Example 127, 2,3-Dichloro-N-[6-chloro-5-(hydroxymethyl)-3-methoxypyrazin-2-yl]benzenesulphonamide], the figure is 145 to 147 °C; as for `O=S(=O)(Nc1ncc(Br)nc1OCc1cncnc1)c1cccc(Cl)c1Cl` [Example 35, N-[5-Bromo-3-(5-pyrimidinylmethoxy)-2-pyrazinyl]-2,3-dichlorobenzenesulphonamide], 208 to 209 °C; as for `NCc1ccc(COc2nccnc2NS(=O)(=O)c2cccc(Cl)c2Cl)o1` [Example 197, N-(3-(5-Aminomethyl-2-furanylmethoxy)-2-pyrazinyl)-2,3-dichlorobenzenesulphonamide], 199 to 201 °C.
In the case of `C=CCOc1nc(Cl)cnc1NS(=O)(=O)c1cccc(Cl)c1Cl` [Example 187, N-(3-Allyloxy-5-chloro-2-pyrazinyl)-2,3-dichlorobenzenesulphonamide], the melting point lay in the range of 145 to 146 °C.
With `O=S(=O)(Nc1ncc(Cl)nc1OCc1ccc(CNCCO)cc1)c1cccc(Cl)c1Cl` [Example 110, 2,3-Dichloro-N-[5-chloro-3-{4-([2-hydroxyethylamino]methyl)phenylmethoxy}-2-pyrazinyl]benzenesulphonamide] the figure was 202 to 205 °C; with `COc1nc(N2CCOCC2)c(Cl)nc1NS(=O)(=O)c1cccc(Cl)c1Cl` [Example 67, 2,3-Dichloro-N-[6-chloro-3-methoxy-5-(4-morpholinyl)-2-pyrazinyl]benzenesulphonamide], 150 to 151 °C; with `CC(Oc1nc(Cl)cnc1NS(=O)(=O)c1cccc(Cl)c1Cl)C1CC1` (stereo not shown) [Example 208], 161 to 162 °C.
In turn, `COc1ncc(Cl)nc1NS(=O)(=O)c1ccc(Cl)cc1Cl` [Example 41, N-(6-Chloro-3-methoxy-2-pyrazinyl)-2,4-dichlorobenezenesulphonamide] displayed a melting point of 189 to 190 °C.
With `Cc1cccc(COc2nc(C)cnc2NS(=O)(=O)c2cccc(Cl)c2Cl)n1` [Example 23, 2,3-Dichloro-N-[5-methyl-3-(6-methyl-2-pyridinylmethoxy)-2-pyrazinyl]benzenesulphonamide] the figure was 164 to 165 °C; with `O=S(=O)(Nc1ncc(Br)nc1OCc1cccnc1)c1cccc(Cl)c1Cl` [Example 34, N-[5-Bromo-3-(3-pyridinylmethoxy)-2-pyrazinyl]-2,3-dichlorobenzenesulphonamide], 204 to 206 °C.
As for `O=C(O)c1cccc(COc2nc(Cl)cnc2NS(=O)(=O)c2cccc(Cl)c2Cl)c1` [Example 105, 3-[6-Chloro-3-(2,3-dichlorobenzenesulphonylamino)-2-pyrazinyloxymethyl]benzoic acid], the figure is 218 to 224 °C (dec.); as for `COc1nc(Cl)c(Cl)nc1NS(=O)(=O)c1cccc(Cl)c1` [Example 61, 3-Chloro-N-(5,6-dichloro-3-methoxy-2-pyrazinyl)benzenesulphonamide], 171 to 172 °C; as for `COc1ncc(Cl)nc1NS(=O)(=O)c1ccc(Cl)cc1` [Example 40, 4-Chloro-N-(6-chloro-3-methoxy-2-pyrazinyl)benezenesulphonamide], 174 to 175 °C.
As for `O=S(=O)(Nc1ncc(-c2ccncc2)nc1OCc1cccnc1)c1cccc(Cl)c1Cl` [Example 136, 2,3-Dichloro-N-[5-(4-pyridinyl)-3-(3-pyridinylmethoxy)-2-pyrazinyl]benzenesulphonaminde], the figure is 210 °C (dec.); as for `NC(=O)c1cnc(NS(=O)(=O)c2cccc(Cl)c2Cl)c(OCc2cccnc2)n1` [Example 135, 5-{[(2,3-Dichlorophenyl)sulphonyl]amino}-6-(3-pyridinylmethoxy)-2-pyrazinecarboxamide], 174 to 178 °C.
As for `COc1nc(OC)c(NS(=O)(=O)c2cccc(Cl)c2Cl)nc1Cl` [Example 66, 2,3-Dichloro-N-(6-chloro-3,5-dimethoxy-2-pyrazinyl)benzenesulphonamide], the melting point was 163 to 165 °C.
As for `COC(=O)c1nccnc1NS(=O)(=O)c1cccc(Cl)c1Cl` [Example 124, 3-{[(2,3-Dichlorophenyl)sulphonyl]amino}pyrazine-2-carboxylic acid, methyl ester], the figure is 177 to 178 °C; as for `COc1nc(CO)cnc1NS(=O)(=O)c1cccc(Cl)c1Cl` [Example 138], 160 to 161 °C.
As for `COCCOc1nc(OC)c(NS(=O)(=O)c2cccc(Cl)c2Cl)nc1Cl` [Example 70, 2,3-Dichloro-N-[6-chloro-3-methoxy-5-(2-methoxyethoxy)-2-pyrazinyl]benzenesulphonamide], the figure is 193 to 194 °C; as for `CNCc1ccc(COc2nccnc2NS(=O)(=O)c2cccc(Cl)c2Cl)o1` [Example 183, 2,3-Dichloro-N-[3-(5-methylaminomethyl-2-furanylmethoxy)-2-pyrazinyl]benzenesulphonamide], 198 to 199 °C.
With `O=S(=O)(Nc1ncc(Cl)nc1OCc1cccnc1)c1cccc(Cl)c1Cl` [Example 36, N-[5-Chloro-3-(3-pyridinylmethoxy)-2-pyrazinyl]-2,3-dichlorobenzenesulphonamide] the figure was 200 to 204 °C.
The compound `COC(=O)COc1cnc(NS(=O)(=O)c2cccc(Cl)c2Cl)c(OC)n1` [Example 199, {[5-(2,3-Dichlorophenylsulfonylamino)-6-methoxy-2-pyrazinyl]oxy}acetic acid, methyl ester] came in with a melting point of 185 to 190 °C.

The record behind these values is patent publication US7662825B2, “N-pyrazinyl-phenylsulphonamides and their use in the treatment of chemokine mediated diseases” (AstraZeneca AB, priority 2002, dated 2010).
